# Assay results from patent US4520022A, “Substituted vinyl cephalosporins” (priority 1983, dated 1985).
# Several values for one entry are separate records, joined by “and”; a condition that tells them apart may be missing. Equal values may be shown once. Read-outs that look alike come from different tables or passages of the source.
# Columns and labels:
# [1] = tested on: N. meningitidis; assay: In vitro activity against Neisseria (MIC), N. meningitidis; assay type: cell-based
# [2] = tested on: S. pneumoniae; assay: In vitro activity against Streptococci (MIC), S. pneumoniae; assay type: cell-based; conditions: Streptococcus pneumoniae
# [3] = tested on: N. gonorrheae; assay: In vitro activity against Neisseria (MIC), N. gonorrheae; assay type: cell-based
# [4] = tested on: C. difficile A21675; assay: In vitro activity against anaerobes (MIC), C. difficile; assay type: cell-based; conditions: Clostridioides difficile
# [5] = tested on: H. influenza A9729; assay: Protective dose PD50, mice infected with lethal inoculum, oral treatment, H. influenza A9729; assay type: in vivo; conditions: Mus musculus, 120 h
# Excerpt: The structure activity correlations drawn from the foregoing in vitro studies are born out by the results of in vivo studies in mice. Table 4 is a tabulation of the protective doses for mice infected with a lethal inoculum of a bacteria. Two different bacteria were employed in the studies, one a Gram+ organism and the other a Gram- organism. The protective dose (PD50) is that dose which when administered to a group of infected mice results in 50% survival after five days. Normally untreated infected mice die within three days following injection of the lethal inoculum.
# Protective Dose PD50 for Mice Infected with Lethal Inoculum
# [6] = tested on: H. influenzae; assay: In vitro activity against Haemophilis (MIC), H. influenzae; assay type: cell-based; conditions: Haemophilus influenzae, Compound 9 lot 2
# [7] = tested on: S. aureus BX-1633; assay: Protective dose PD50, mice infected with lethal inoculum, oral treatment, S. aureus BX-1633; assay type: in vivo; conditions: Staphylococcus aureus, BX1633, 120 h
# [8] = tested on: B. fragilis; assay: In vitro activity against anaerobes (MIC), B. fragilis; assay type: cell-based; conditions: Bacteroides fragilis
# [9] = tested on: S. pyogenes; assay: In vitro activity against Streptococci (MIC), S. pyogenes; assay type: cell-based
# [10] = tested on: S. pyogenes A20201; assay: Protective dose PD50, mice infected with lethal inoculum, oral treatment, S. pyogenes A20201; assay type: in vivo; conditions: Streptococcus pyogenes, 120 h
# [11] = tested on: P. anaerobius A21905; assay: In vitro activity against anaerobes (MIC), P. anaerobius; assay type: cell-based; conditions: Peptostreptococcus anaerobius, A21905
# [12] = tested on: P. acnes A21933; assay: In vitro activity against anaerobes (MIC), P. acnes; assay type: cell-based; conditions: Cutibacterium acnes, A21933
# [13] = tested on: P. mirabilis A9554; assay: Protective dose PD50, mice infected with lethal inoculum, oral treatment, P. mirabilis A9554; assay type: in vivo
# [14] = tested on: Gp, rods; Gp, cocci; assay: microbe, parasite or virus in culture; assay type: cell-based, C. difficile; C. perfringens; P. acnes; P. anaerobius; conditions: read-out: MIC, Geometric Mean
# [15] = tested on: C. perfringens A9645; assay: microbe, parasite or virus in culture; assay type: cell-based; conditions: Clostridium perfringens
# [16] = tested on: S. aureus Smith; assay: Protective dose, mice infected with lethal inoculum, oral treatment, S. aureus Smith; assay type: in vivo; conditions: value in parentheses: cephalexin in the same run as the compound of that line
# [17] = tested on: Gp Ia: S. aureus Smith A9537, A9497, Terajima, A9534, A9601; conditions: Staphylococcus aureus, read-out: Minimum Inhibitory Concentration Gp Ia, Mueller-Hinton agar, average of five organisms
# [18] = tested on: Gp Ib: S. aureus 193, BX-1633-2 A9606, A15092, Russell, A9602; conditions: Staphylococcus aureus, read-out: Minimum Inhibitory Concentration Gp Ib, Mueller-Hinton agar, average of five organisms
# [19] = tested on: E. coli Juhl; assay: Protective dose, mice infected with lethal inoculum, oral treatment, E. coli Juhl; assay type: in vivo; conditions: value in parentheses: cephalexin in the same run as the compound of that line
# [20] = B. fragilis A20928-1, β-lactamase (-)
# [21] = S. pyogenes A9604, Compound 9 lot 2
# [22] = S. pyogenes A15040, Compound 9 lot 2
# [23] = S. pyogenes A20065, Compound 9 lot 2
# [24] = S. pyogenes Dick, Compound 9 lot 2
# [25] = Streptococcus pyogenes, read-out: MIC, Geometric Mean
smiles,measurement,setting,value
N[C@@H](C(=O)N[C@@H]1C(=O)N2C(C(=O)O)=C(Cl)CS[C@H]12)c1ccccc1 [Cefaclor],MIC,[1]; N. meningitidis A20049,0.8 µg/mL
same,MIC,"[1]; N. meningitidis A21487, Compound 9 lot 2",0.8 µg/mL
same,MIC,"[1]; N. meningitidis A21496, Compound 9 lot 2",0.8 µg/mL
same,MIC,"[1]; N. meningitidis A21497, Compound 9 lot 2",0.8 µg/mL
same,MIC,[1]; Neisseria meningitidis,0.8 µg/mL
same,MIC,"[1]; Neisseria meningitidis, read-out: MIC, Geometric Mean",0.8 µg/mL
same,MIC,[2],0.8 µg/mL
same,MIC,"[2]; read-out: MIC, Geometric Mean",1.3 µg/mL
same,MIC,[3],0.8 µg/mL
same,MIC,"[3]; N. gonorrheae A20143, Compound 9 lot 2",0.8 µg/mL
same,MIC,"[3]; N. gonorrheae A20154, Compound 9 lot 2",0.8 µg/mL
same,MIC,"[3]; N. gonorrheae A20155, Compound 9 lot 2",0.8 µg/mL
same,MIC,"[3]; read-out: MIC, Geometric Mean",0.8 µg/mL
same,MIC,[4]; A21675,25 µg/mL
same,ED50,[5],1.6 mg/kg
same,MIC,[6]; H. influenzae A9729,0.8 µg/mL
same,MIC,[6]; H. influenzae A9833,0.8 µg/mL
same,MIC,[6]; H. influenzae A20177,0.8 µg/mL
same,MIC,[6]; H. influenzae A20193,0.8 µg/mL
same,MIC,[6]; H. influenzae A21523,0.8 µg/mL
same,MIC,[6]; H. influenzae A22482,0.4 µg/mL
same,MIC,[6]; H. influenzae A22483,0.4 µg/mL
same,MIC,"[6]; read-out: MIC, Geometric Mean, H. influenzae, seven strains above",0.66 µg/mL
same,ED50,[7],2.2 mg/kg
same,MIC,[8]; [20],3.1 µg/mL
same,MIC,"[8]; B. fragilis A20935, β-lactamase (-)",3.1 µg/mL
same,MIC,"[8]; B. fragilis A22021, β-lactamase (+)",> 100 µg/mL
same,MIC,"[8]; B. fragilis A22053, β-lactamase (+)",100 µg/mL
same,MIC,"[8]; B. fragilis A22533, β-lactamase (+)",> 100 µg/mL
same,MIC,"[8]; B. fragilis A22693, β-lactamase (+)",> 100 µg/mL
same,MIC,"[8]; B. fragilis A22695, β-lactamase (+)",100 µg/mL
same,MIC,"[8]; read-out: MIC, Geometric Mean, B. fragilis A20928-1, A21900, A20935, β-lactamase (-)",3.9 µg/mL
same,MIC,"[8]; read-out: MIC, Geometric Mean, B. fragilis A22053, A22021, A22693, β-lactamase (+)",> 100 µg/mL
same,MIC,"[8]; read-out: MIC, Geometric Mean, B. fragilis A22695, A22533, β-lactamase (+)",> 100 µg/mL
same,MIC,[9]; [21],0.2 µg/mL
same,MIC,[9]; [22],0.2 µg/mL
same,MIC,[9]; [23],0.2 µg/mL
same,MIC,[9]; [24],0.2 µg/mL
same,MIC,[9]; Streptococcus pyogenes,0.2 µg/mL
same,MIC,[9]; [25],0.2 µg/mL
same,ED50,[10],0.14 mg/kg
same,MIC,[11],0.4 µg/mL
same,MIC,[12],0.8 µg/mL
same,Protective Dose PD50,[13],1.8
CC1=C(C(=O)O)N2C(=O)[C@@H](NC(=O)[C@H](N)c3ccccc3)[C@H]2SC1 [Cephalexin],MIC,[14],11 µg/mL
same,MIC,[15],12.5 µg/mL
same,MIC,[2],3.1 µg/mL
same,MIC,"[2]; S. pneumoniae A9585, Compound 9 lot 2",3.1 µg/mL
same,MIC,"[2]; S. pneumoniae A15069, Compound 9 lot 2",3.1 µg/mL
same,MIC,"[2]; S. pneumoniae A20759, Compound 9 lot 2",3.1 µg/mL
same,MIC,"[2]; S. pneumoniae Type I, Compound 9 lot 2",3.1 µg/mL
same,MIC,"[2]; S. pneumoniae Type III, Compound 9 lot 2",3.1 µg/mL
same,MIC,"[2]; read-out: MIC, Geometric Mean",3.1 µg/mL
same,MIC,"[4]; Gp rods, C. difficile A21675, clindamycin resistant, read-out: MIC",100 µg/mL
same,ED50,"[16]; Staphylococcus aureus, po, 120 h, read-out: Protective dose (PD50) of cephalexin in the same run, S. aureus Smith, oral",0.31 mg/kg
same,"Protective dose (PD50) of cephalexin in the same run, S. aureus Smith","[16]; oral, 7200 min",0.27 mg/kg and 0.22 mg/kg
same,ED50,[5],18 mg/kg
same,MIC,"[6]; H. influenzae A22157, read-out: MIC",3.1 µg/mL
same,MIC,"[6]; H. influenzae A22481, read-out: MIC",3.1 µg/mL
same,MIC,"[6]; H. influenzae A22491, read-out: MIC",3.1 µg/mL
same,ED50,[7],17 mg/kg
same,MIC,[17]; run 1,1.2 µg/mL
same,MIC,[17]; run 2,0.7 µg/mL
same,MIC,[18]; run 1,4.1 µg/mL
same,MIC,[18]; run 2,3.6 µg/mL
same,MIC,"[8]; B. fragilis A20928-1, A21900, A20935, β-lactamase (-), read-out: MIC, Geometric Mean",9.9 µg/mL
same,MIC,[8]; [20],12.5 µg/mL
same,MIC,"[8]; B. fragilis A22021, β-lactamase (+), read-out: MIC",100 µg/mL
same,MIC,"[8]; B. fragilis A22053, A22021, A22693, β-lactamase (+), read-out: MIC, Geometric Mean",> 75 µg/mL
same,MIC,"[8]; B. fragilis A22053, β-lactamase (+), read-out: MIC",25 µg/mL
same,MIC,"[8]; B. fragilis A22533, β-lactamase (+), read-out: MIC",> 100 µg/mL
same,MIC,"[8]; B. fragilis A22693, β-lactamase (+), read-out: MIC",> 100 µg/mL
same,MIC,"[8]; B. fragilis A22695, A22533, β-lactamase (+), read-out: MIC, Geometric Mean",> 100 µg/mL
same,MIC,"[8]; B. fragilis A22695, β-lactamase (+), read-out: MIC",100 µg/mL
same,ED50,"[19]; Escherichia coli, po, 120 h, read-out: Protective dose (PD50) of cephalexin in the same run, E. coli Juhl, oral",8.4 mg/kg
same,"Protective dose (PD50) of cephalexin in the same run, E. coli Juhl","[19]; oral, 7200 min",8.2 mg/kg
same,MIC,[9]; [21],0.8 µg/mL
same,MIC,[9]; [22],0.8 µg/mL
same,MIC,[9]; [23],0.8 µg/mL
same,MIC,"[9]; S. pyogenes A20201, Compound 9 lot 2",0.8 µg/mL
same,MIC,[9]; [24],0.8 µg/mL
same,MIC,[9]; Streptococcus pyogenes,0.8 µg/mL
same,MIC,[9]; [25],0.8 µg/mL
same,ED50,[10],0.74 mg/kg
same,Protective Dose PD50,[13],12.5
